According to PubChem BioAssay (NCI):
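Tested at 5 concentrations; 48 h exposure; 96-well plates; endpoints linearly interpolated, else capped at highest concentration. GI50 marks 50% less growth. TGI denotes the concentration required for complete inhibition of growth.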

Tests used:
Experiment in all cases: NCI tumour cell line growth inhibition, 48 h
HOP-92 NSCLC = test system: HOP-92 NSCLC
LOX IMVI melanoma = test system: LOX IMVI melanoma
COLO 205 colon = test system: COLO 205 colon
SF-295 CNS = test system: SF-295 CNS
CCRF-CEM leukemia = test system: CCRF-CEM leukemia
OVCAR-4 ovarian = test system: OVCAR-4 ovarian
NCI-H460 lung = test system: NCI-H460 lung
U251 CNS = test system: U251 CNS
UACC-257 melanoma = test system: UACC-257 melanoma
NCI-H23 lung = test system: NCI-H23 lung

SMILES | TGI (HOP-92 NSCLC) [µM] | TGI (LOX IMVI melanoma) [µM] | TGI (COLO 205 colon) [µM] | TGI (SF-295 CNS) [µM] | TGI (CCRF-CEM leukemia) [µM] | TGI (OVCAR-4 ovarian) [µM] | TGI (NCI-H460 lung) [µM] | TGI (U251 CNS) [µM] | TGI (UACC-257 melanoma) [µM] | TGI (NCI-H23 lung) [µM] | GI50 (HOP-92 NSCLC) [µM] | GI50 (LOX IMVI melanoma) [µM] | GI50 (COLO 205 colon) [µM] | GI50 (SF-295 CNS) [µM] | GI50 (CCRF-CEM leukemia) [µM] | GI50 (OVCAR-4 ovarian) [µM] | GI50 (NCI-H460 lung) [µM] | GI50 (U251 CNS) [µM] | GI50 (UACC-257 melanoma) [µM] | GI50 (NCI-H23 lung) [µM]
CC1=NN(c2ccc(S(=O)(=O)O)cc2)C(=O)/C1=C/c1ccc(Cl)cc1 | > 100 | > 100 | > 100 | > 100 | > 100 | > 100 | > 100 | > 100 | > 100 | > 100 | – | – | – | – | – | – | – | – | – | –
[Cl][Hg][c]1ccc(Cl)s1 | 3.11 | 3.24 | 2.9 | 25.7 | 3.99 | 4.78 | 35.7 | 2.71 | 3.04 | 8.05 | 1.67 | 1.53 | 1.39 | 11.5 | 0.326 | 1.76 | 8.9 | 0.91 | 1.54 | 2.69
Cc1nc(-c2nc(-c3ccc(OC(F)(F)F)cc3)no2)nn1Cc1cccc(N2CCC(S(C)(=O)=O)CC2)c1 | > 89 | > 100 | > 100 | > 77 | > 100 | > 90.6 | > 100 | > 100 | > 86.6 | > 100 | 28.9 | 0.012 | 11.1 | 0.0227 | 7.41 | < 0.0137 | 5.95 | > 39.3 | 0.286 | < 0.01
C=C1C(=O)O[C@H]2C[C@@H]1CC/C(C)=C/CC/C(C)=C/CC[C@@]2(C)O | 42.7 | 31.5 | > 100 | > 100 | 38.9 | > 100 | > 100 | > 100 | > 100 | > 100 | 19.5 | 17.4 | 44.2 | > 100 | 16.5 | > 100 | > 100 | 53 | > 100 | 7.51
O=c1c2ccccc2nc(/C=C(\O)c2ccncc2)n1-c1ccc(Cl)cc1 | > 100 | – | > 100 | > 100 | > 100 | > 100 | > 100 | > 100 | > 100 | > 100 | – | – | – | – | – | – | – | – | – | –
COC(=O)c1ccccc1N1C(=O)Cc2ccccc2C1=O | – | – | > 100 | > 100 | – | – | – | > 100 | > 100 | > 100 | – | – | – | – | – | – | – | – | – | –
Cn1nc(C(F)(F)F)cc1-c1c[nH]c(OCc2ccc(Cl)cc2)c(-c2ccc(Cl)c(C(F)(F)F)c2)c1=O | 1.54 | 3.56 | 1.97 | 2.18 | > 50 | > 50 | 5 | > 17.5 | 3.6 | 5.95 | 0.224 | 1.23 | 0.935 | 0.887 | 0.998 | 1.43 | 0.944 | 1.27 | 0.919 | 1.05
O=[N+]([O-])c1ccc(C2=Nn3c(nnc3-c3ccc(Cl)cc3)SC2)o1 | 8.31 | 12.2 | 4.31 | 23.5 | 7.54 | 6.66 | 17.7 | 31.5 | 16.9 | 18.6 | – | – | – | – | – | – | – | – | – | –
c1ccc2cc(NCNc3ccc4ccccc4c3)ccc2c1 | 26.6 | 25.9 | 34.3 | 33.9 | 62.6 | 26.6 | 28.9 | 93.6 | 20.9 | 30.5 | – | – | – | – | – | – | – | – | – | –
C[C@@H]1CCC([C@@H](C)[C@H]2CC[C@H]3[C@@H]4CC[C@H]5C[C@@H](O)CC[C@]5(C)[C@H]4CC[C@]23C)=NC1 | > 100 | > 100 | > 53.2 | > 43.6 | > 100 | > 100 | 48.9 | > 86.4 | > 100 | > 100 | – | – | – | – | – | – | – | – | – | –
O=C([O][Hg][CH2]C1OCCOC1[CH2][Hg][O]C(=O)c1ccccc1)c1ccccc1 (stereo not drawn) | 59.4 | 7.56 | 3.27 | 32.7 | > 23.4 | 12.7 | 36.2 | 28.4 | 3.4 | 21.3 | 37.6 | 3.66 | 1.82 | 17.6 | 1.66 | 6.07 | 19.1 | 15.1 | 1.89 | 8.21
CCOC(=O)Cc1csc(Nc2ccc(OCC)cc2)n1 | > 100 | – | > 100 | > 100 | – | > 100 | > 100 | > 100 | > 100 | > 100 | – | – | – | – | – | – | – | – | – | –
NC(N)=NC(N)=Nc1cnccn1 | > 100 | > 100 | > 100 | > 100 | > 100 | > 100 | – | > 100 | > 100 | > 100 | – | – | – | – | – | – | – | – | – | –
C(=N\Nc1ccccc1)/c1nc2ccccc2nc1/C=N/Nc1ccccc1 | 33.2 | 22.1 | – | 30.5 | > 100 | 48.4 | 29 | – | 58.2 | 27.2 | – | – | – | – | – | – | – | – | – | –
CC(C)(C)[Si](C)(C)OC1[C@@H](O[Si](C)(C)C(C)(C)C)[C@@H](CNC(=O)NC(=O)CF)O[C@H]1n1cnc2c(NC(=O)Nc3ccccc3)ncnc21 (stereo partly drawn) | 19.8 | 12.5 | 18.4 | – | > 50 | > 50 | > 50 | 25.8 | > 50 | > 50 | 6.48 | 6.14 | 7.66 | – | 11.6 | 6.18 | 8.32 | 9.67 | 20 | 14.3
COc1ccc(Sc2nc3cc(N)cc(N)c3nc2-c2ccccc2)cc1 | – | > 100 | > 100 | > 100 | 8.36 | – | > 100 | > 100 | > 100 | > 100 | – | 51 | 19.3 | > 100 | 2.28 | – | 20 | > 100 | 43.2 | > 100
